Assays:
Assay type in all cases: in vivo
[1] = system: barnyardgrass (Echinochloa crus-galli); test: Test A postemergence barnyardgrass; conditions: 0 to 100 scale, 0 is no effect, 100 is complete control
In short: (§1)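 Directed soil spray at planting gives preemergence data; foliar application to one- to two-leaf plants gives postemergence data. Response is visual injury relative to untreated controls about 10 d after treatment, scored 0–100.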

[2] = system: ryegrass, Italian (Italian ryegrass, Lolium multiflorum); test: Test A postemergence ryegrass, Italian; conditions: 0 to 100 scale, 0 is no effect, 100 is complete control
In short: as §1

corn (Zea mays) = test: Test A postemergence corn; conditions: 0 to 100 scale, 0 is no effect, 100 is complete control
In short: as §1

[3] = system: ducksalad (Heteranthera limosa); test: Test C flooded paddy test ducksalad; conditions: Table C, Flood, scale 0 to 100
From the text: (§2) Plant species in the flooded paddy test consisted of rice (Oryza sativa), sedge, umbrella (small-flower umbrella sedge, Cyperus difformis), ducksalad (Heteranthera limosa), and barnyardgrass (Echinochloa crus-galli) grown to the 2-leaf stage for testing. At time of treatment, test pots were flooded to 3 cm above the soil surface, treated by application of test compounds directly to the paddy water, and then maintained at that water depth for the duration of the test. Treated plants and controls were maintained in a greenhouse for 13 to 15 d, after which time all species were compared to controls and visually evaluated. Plant response ratings, summarized in Table C, are based on a scale of 0 to 100 where 0 is no effect and 100 is complete control. A dash (-) response means no test result.

[4] = system: foxtail, giant (giant foxtail, Setaria faberii); test: Test A preemergence foxtail, giant; conditions: 0 to 100 scale, 0 no effect, 100 complete control
In short: as §1

[5] = system: foxtail, giant (giant foxtail, Setaria faberii); test: Test A postemergence foxtail, giant; conditions: 0 to 100 scale, 0 is no effect, 100 is complete control
In short: as §1

[6] = system: ragweed (common ragweed, Ambrosia elatior); test: Test A postemergence ragweed; conditions: 0 to 100 scale, 0 is no effect, 100 is complete control
In short: as §1

kochia (Kochia scoparia) [7] = test: Test A preemergence kochia; conditions: 0 to 100 scale, 0 no effect, 100 complete control
In short: as §1

kochia (Kochia scoparia) [8] = test: Test A postemergence kochia; conditions: 0 to 100 scale, 0 is no effect, 100 is complete control
In short: as §1

[9] = system: wheat (Triticum aestivum); test: Test A postemergence wheat; conditions: 0 to 100 scale, 0 is no effect, 100 is complete control
In short: as §1

[10] = system: sedge, umbrella (small-flower umbrella sedge, Cyperus difformis); test: Test C flooded paddy test sedge, umbrella; conditions: Table C, Flood, scale 0 to 100
From the text: as §2

[11] = system: barnyardgrass (Echinochloa crus-galli); test: Test A preemergence barnyardgrass; conditions: 0 to 100 scale
In short: as §1

rice (Oryza sativa) = test: Test C flooded paddy test rice; conditions: Table C, Flood, scale 0 to 100
From the text: as §2

[12] = system: pigweed (Amaranthus retroflexus); test: Test A postemergence pigweed; conditions: 0 to 100 scale, 0 is no effect, 100 is complete control
In short: as §1

[13] = system: pigweed (Amaranthus retroflexus); test: Test A preemergence pigweed; conditions: 0 to 100 scale, 0 no effect, 100 complete control
In short: as §1

[14] = system: barnyardgrass (Echinochloa crus-galli); test: Test C flooded paddy test barnyardgrass; conditions: Table C, Flood, scale 0 to 100
From the text: as §2

[15] = system: ragweed (common ragweed, Ambrosia elatior); test: Test A preemergence ragweed; conditions: 0 to 100 scale, 0 no effect, 100 complete control
In short: as §1

[16] = system: blackgrass (Alopecurus myosuroides); test: Test A postemergence blackgrass; conditions: 0 to 100 scale, 0 is no effect, 100 is complete control
In short: as §1

[17] = system: ryegrass, Italian (Italian ryegrass, Lolium multiflorum); test: Test A preemergence ryegrass, Italian; conditions: 0 to 100 scale, 0 no effect, 100 complete control
In short: as §1

[18] = system: galium (catchweed bedstraw, Galium aparine); test: Test A postemergence galium; conditions: 0 to 100 scale, 0 is no effect, 100 is complete control
In short: as §1

## O=C1NCCC(c2ccc(C(F)(F)F)cc2)C1C(=O)Nc1ccccc1C(F)(F)F (racemic) [Compound 12]
[1]; 125 g ai/ha
  Plant response rating, Barnyardgrass: 20
[1]; 500 g ai/ha
  Plant response rating, Barnyardgrass: 60
[2]; 125 g ai/ha
  Plant response rating, Ryegrass, Italian: 0
[2]; 500 g ai/ha
  Plant response rating, Ryegrass, Italian: 0
Corn (Zea mays); 125 g ai/ha
  Plant response rating, Corn: 0
Corn (Zea mays); 500 g ai/ha
  Plant response rating, Corn: 0
[3]; 125 g ai/ha
  Plant response rating: 0
[3]; 250 g ai/ha
  Plant response rating: 35
[3]; 500 g ai/ha
  Plant response rating: 75
[3]; 1000 g ai/ha
  Plant response rating: 100
[4]; 125 g ai/ha
  Foxtail, Giant plant response rating: 20
[4]; 500 g ai/ha
  Foxtail, Giant plant response rating: 70
[5]; 125 g ai/ha
  Plant response rating, Foxtail, Giant: 20
[5]; 500 g ai/ha
  Plant response rating, Foxtail, Giant: 60
[6]; 125 g ai/ha
  Plant response rating, Ragweed: 0
[6]; 500 g ai/ha
  Plant response rating, Ragweed: 0
Kochia (Kochia scoparia) [7]; 125 g ai/ha
  Kochia plant response rating: 0
Kochia (Kochia scoparia) [7]; 500 g ai/ha
  Kochia plant response rating: 0
Kochia (Kochia scoparia) [8]; 125 g ai/ha
  Plant response rating, Kochia: 0
Kochia (Kochia scoparia) [8]; 500 g ai/ha
  Plant response rating, Kochia: 0
[9]; 125 g ai/ha
  Plant response rating, Wheat: 0
[9]; 500 g ai/ha
  Plant response rating, Wheat: 0
[10]; 125 g ai/ha
  Plant response rating: 0
[10]; 250 g ai/ha
  Plant response rating: 0
[10]; 500 g ai/ha
  Plant response rating: 10
[10]; 1000 g ai/ha
  Plant response rating: 25
[11]; 125 g ai/ha, 0 no effect, 100 complete control
  Barnyardgrass plant response rating: 20
[11]; 500 g ai/ha, 0 is no effect, 100 is complete control
  Plant response rating, Barnyardgrass: 70
Rice (Oryza sativa); 125 g ai/ha
  Plant response rating: 0
Rice (Oryza sativa); 250 g ai/ha
  Plant response rating: 0
Rice (Oryza sativa); 500 g ai/ha
  Plant response rating: 0
Rice (Oryza sativa); 1000 g ai/ha
  Plant response rating: 0
[12]; 125 g ai/ha
  Plant response rating, Pigweed: 0
[12]; 500 g ai/ha
  Plant response rating, Pigweed: 0
[13]; 125 g ai/ha
  Pigweed plant response rating: 0
[13]; 500 g ai/ha
  Pigweed plant response rating: 0
[14]; 125 g ai/ha
  Plant response rating: 0
[14]; 250 g ai/ha
  Plant response rating: 15
[14]; 500 g ai/ha
  Plant response rating: 20
[14]; 1000 g ai/ha
  Plant response rating: 25
[15]; 125 g ai/ha
  Ragweed plant response rating: 0
[15]; 500 g ai/ha
  Ragweed plant response rating: 0
[16]; 125 g ai/ha
  Plant response rating, Blackgrass: 0
[16]; 500 g ai/ha
  Plant response rating, Blackgrass: 0
[17]; 125 g ai/ha
  Ryegrass, Italian plant response rating: 0
[17]; 500 g ai/ha
  Ryegrass, Italian plant response rating: 0
[18]; 125 g ai/ha
  Plant response rating, Galium: 0
[18]; 500 g ai/ha
  Plant response rating, Galium: 0

Source: US9944602B2, “Piperidinone herbicides” (E. I. DU PONT DE NEMOURS AND COMPANY, priority 2014, dated 2018)
